Assay results reported in patent publication US20260216347A1, “Substituted Imidazo-Based Compounds as Ligand Directed Degraders of IRAK3” (Celgene Corporation, priority 2022, published 2026).

Columns and labels:
IRAK3-ePL = target: T1, IRAK3-ePL (Homo sapiens, UniProt Q9Y616); assay: IRAK3-ePL overexpressing degradation assay (InCELL Hunter luminescence, dose response); format: cell-based; conditions: for IRAK3 ePL degradation Ymin: lowest percentage of target protein remaining following compound treatment; for DC50: read-out: IRAK3 ePL degradation EC50
T1 construct: expressed in transfected cells; host or cells: 293T CRBN OE/GSPT1 G575N KI cells, lentiviral transduction, puromycin selected
Procedure, shortened: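 Lenti-X 293T CRBN/GSPT1 G575N cells stably expressing IRAK3-ePL (5,000/well) treated overnight at 37° C with 10-point 3-fold dilutions from 10 μM, 0.2% DMSO. InCELL Hunter luminescence, background subtracted using Ataluren wells and normalized to DMSO; EC50 from four-parameter logistic fit.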

IRAK3 = target: T2, IRAK3 (Homo sapiens, UniProt Q9Y616); assay: IRAK endogenous HTRF degradation assay (Total-IRAK3 HTRF kit); format: cell-based; conditions: overnight incubation, lowest percentage of protein remaining
T2 construct: IRAK Endogenous HTRF Degradation Assay; endogenous in cells
T2 sequence (Q9Y616 1-596): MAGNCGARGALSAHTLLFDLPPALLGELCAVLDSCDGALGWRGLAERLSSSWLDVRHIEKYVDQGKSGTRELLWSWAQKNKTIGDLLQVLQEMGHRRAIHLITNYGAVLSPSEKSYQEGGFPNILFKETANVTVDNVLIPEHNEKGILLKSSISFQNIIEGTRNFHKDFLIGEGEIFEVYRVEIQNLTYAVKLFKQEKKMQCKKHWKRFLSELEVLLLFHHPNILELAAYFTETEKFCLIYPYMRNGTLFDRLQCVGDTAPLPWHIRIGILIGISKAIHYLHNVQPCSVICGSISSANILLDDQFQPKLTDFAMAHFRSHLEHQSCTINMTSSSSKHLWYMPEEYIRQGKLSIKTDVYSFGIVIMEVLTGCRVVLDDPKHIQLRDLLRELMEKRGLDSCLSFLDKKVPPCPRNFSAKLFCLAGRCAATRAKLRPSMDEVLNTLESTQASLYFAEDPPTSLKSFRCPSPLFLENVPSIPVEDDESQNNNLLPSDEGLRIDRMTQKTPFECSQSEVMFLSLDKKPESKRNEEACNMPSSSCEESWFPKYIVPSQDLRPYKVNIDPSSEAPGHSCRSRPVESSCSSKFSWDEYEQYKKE
Method: Example B2. IRAK Endogenous HTRF Degradation Assay
Cells (~50 k) were plated in Cisbio 96-well low volume white plates (Cisbio: cat #66PL96005). Compounds were dissolved in DMSO and a 3-fold serial dilution was performed using a TECAN D300E. Cells were incubated with the compound overnight. Total-IRAK3 HTRF kit from Cisbio was used for degradation analysis (Cisbio: 63ADK101PEH). Cryptate and D2 antibodies were diluted in Detection buffer as per manufacturers recommendation. Then 2 μL of each solution was added to 16 μL lysate. Buffer control (lysis buffer detection buffer), Cryptate control (lysis buffer+cryptate antibody+detection buffer), and Negative control (lysis buffer+cryptate antibody+D2 antibody) were made as per manufacturers recommendation. Post incubation with antibodies the HTRF signal was measured using a Perkin Elmer Envision reader and the HTRF signal was calculated using formula: (Emission at 665 nm/Emission at 615 nm)*10,000. All HTRF values were normalized to the average value of DMSO. The average value of the DMSO control wells were set to equal 100% of the relative IRAK3 protein levels. Normalized luminescence values were plotted on a graph as a function of compound concentration. Compound concentration was plotted on the x-axis and the corresponding normalized IRAK3 protein levels on the y-axis. The EC50 value (the half-maximum effective concentration) of a compound for the degradation of the IRAK3 was calculated using a four-parameter logistic model (sigmoidal dose-response model) (FIT=(A+{(B−A)/1+[(C/x)D]})) where C is the inflection point (EC50), D is the […], and A and B are the low and high limits of the fit, respectively). The Ymin was calculated by determining the lowest percentage of target protein remaining following compound treatment. Dmax was calculated from Ymin (% Dmax=100−Ymin).
Using these assays, IC50, Dmax, EC50, and DC50 values of the following compounds were determined. Dmax is defined as the maximum percent degradation achieved and DC50 is the concentration at which 50% degradation is achieved.

Structure (SMILES)	IRAK3 ePL degradation Ymin (IRAK3-ePL)	DC50 (IRAK3-ePL)	IRAK3 HTRF degradation Ymin (IRAK3)
Cc1cc(-c2cnc(Nc3cnn([C@H]4CC[C@H](CCN5CCN(c6ccc(C7CCC(=O)NC7=O)cc6)C[C@H]5C)CC4)c3)c3nccn23)c(F)cc1F (stereo partly drawn) [Compound 37, 3-(4-((R)-4-(2-((trans)-4-(4-((5-(2,4-difluoro-5-methylphenyl)imidazo[1,2-a]pyrazin-8-yl)amino)-1H-pyrazol-1-yl)cyclohexyl)ethyl)-3-methylpiperazin-1-yl)phenyl) piperidine-2,6-dione]	20%	3.8 nM	10%
C[C@H]1CN(c2ccc(C3CCC(=O)NC3=O)cc2)CCN1CCN1CCC(n2cc(Nc3ncc(C4CC4)n4ccnc34)cn2)CC1 (stereo partly drawn) [Compound 38, 3-(4-((S)-4-(2-(4-(4-((5-cyclopropylimidazo[1,2-a]pyrazin-8-yl)amino)-1H-pyrazol-1-yl)piperidin-1-yl)ethyl)-3-methylpiperazin-1-yl)phenyl) piperidine-2,6-dione]	25%	0.51 nM	9.1%
Cc1cc(-c2cnc(Nc3cnn(C4CCN(CCN5CCN(c6ccc7c(C8CCC(=O)NC8=O)nn(C)c7c6)CC5)CC4)c3)c3nccn23)c(F)cc1F (stereo not drawn) [Compound 39, 3-(6-(4-(2-(4-(4-((5-(2,4-difluoro-5-methylphenyl)imdazo [1,2-a]pyrazin-8-yl)amino)-1H-pyrazol-1-yl)piperidin-1-yl)ethyl)piperazin-1-yl)-1-methyl-1H-indazol-3-yl)piperidine-2,6-dione]	32%	0.51 nM	14. %
CN1CCOc2ccc(-c3cnc(Nc4cnn([C@H]5CC[C@H](CCN6CCN(c7ccc(C8CCC(=O)NC8=O)cc7)CC6)CC5)c4)c4nccn34)cc21 (stereo partly drawn) [Compound 40]	24%	1.5 nM	8.5%
Cc1cc(-c2cnc(Nc3cnn(C4CCN(CCN5CCN(c6cccc7c(C8CCC(=O)NC8=O)nn(C)c67)CC5)CC4)c3)c3nccn23)c(F)cc1F (stereo not drawn) [Compound 41, 3-(7-(4-(2-(4-(4-((5-(2,4-difluoro-5-methylphenyl)imdazo [1,2-a]pyrazin-8-yl)amino)-1H-pyrazol-1-yl)piperidin-1-yl)ethyl)piperazin-1-yl)-1-methyl-1H-indazol-3-yl)piperidine-2,6-dione]	25%	0.68 nM	8.7%
COc1cc(C2CCC(=O)NC2=O)ccc1N1CCN(CCN2CCC(n3cc(Nc4ncc(-c5cc(C)c(F)cc5F)n5ccnc45)cn3)CC2)CC1 (stereo not drawn) [Compound 42, 3-(4-(4-(2-(4-(4-((5-(2,4-difluoro-5-methylphenyl)imdazo [1,2-a]pyrazin-8-yl)amino)-1H-pyrazol-1-yl)piperidin-1-yl)ethyl)piperazin-1-yl)-3-methoxyphenyl) piperidine-2,6-dione]	23%	0.51 nM	9.8%
Cc1cc(-c2cnc(Nc3cnn(C4CCN(CCN5CCN(c6ccc(C7CCC(=O)NC7=O)cc6)[C@@H](C)C5)CC4)c3)c3nccn23)c(F)cc1F (stereo partly drawn) [Compound 44, 3-(4-((S)-4-(2-(4-(4-((5-(2,4-difluoro-5-methylphenyl)imdazo [1,2-a]pyrazin-8-yl)amino)-1H-pyrazol-1-yl)piperidin-1-yl)ethyl)-2-methylpiperazin-1-yl)phenyl) piperidine-2,6-dione]	26%	0.97 nM	8.1%
Cc1cccc(-c2cnc(Nc3cnn([C@H]4CC[C@@H](CCN5CCN(c6ccc(C7CCC(=O)NC7=O)cc6)CC5)CC4)c3)c3nccn23)c1 (stereo partly drawn) [Compound 45, 3-(4-(4-(2-((cis)-4-(4-((5-(m-tolyl)imidazo [1,2-a]pyrazin-8-yl)amino)-1H-pyrazol-1-yl)cyclohexyl)ethyl)piperazin-1-yl)phenyl) piperidine-2,6-dione]	26%	7.2 nM	15%
Cc1cc(-c2cnc(Nc3cnn(C4CCN(CCN5CCN(c6ccc(C7CCC(=O)NC7=O)cc6)[C@H](C)C5)CC4)c3)c3nccn23)c(F)cc1F (stereo partly drawn) [Compound 50, 3-(4-((R)-4-(2-(4-(4-((5-(2,4-difluoro-5-methylphenyl)imdazo [1,2-a]pyrazin-8-yl)amino)-1H-pyrazol-1-yl)piperidin-1-yl)ethyl)-2-methylpiperazin-1-yl)phenyl) piperidine-2,6-dione]	25%	1.3 nM	9.8%
O=C1CCC(c2ccc(N3CCN(CCN4CCC(n5cc(Nc6ncc(-c7cc8c(cc7F)OCCN8)n7ccnc67)cn5)CC4)CC3)cc2)C(=O)N1 (stereo not drawn) [Compound 51, 3-(4-(4-(2-(4-(4-((5-(7-fluoro-3,4-dihydro-2H-benzo[b][1,4]oxazin-6-yl)imidazo[1,2-a]pyrazin-8-yl)amino)-1H-pyrazol-1-yl)piperidin-1-yl)ethyl)piperazin-1-yl)phenyl) piperidine-2,6-dione]	24%	2.5 nM	9.3%
Cc1cc(-c2cnc(N(C)c3cnn(C4CCN(CCN5CCN(c6ccc(C7CCC(=O)NC7=O)cc6)CC5)CC4)c3)c3nccn23)c(F)cc1F (stereo not drawn) [Compound 52, 3-(4-(4-(2-(4-(4-((5-(2,4-difluoro-5-methylphenyl)imdazo [1,2-a]pyrazin-8-yl)(methyl)amino)-1H-pyrazol-1-yl)piperidin-1-yl)ethyl)piperazin-1-yl)phenyl) piperidine-2,6-dione]	40%	96 nM	74%
Cc1cc(-c2cnc(Nc3cnn(C4CCN(CCN5CCN(c6ccc(C7CCC(=O)NC7=O)c(F)c6)CC5)CC4)c3)c3nccn23)c(F)cc1F (stereo not drawn) [Compound 53, 3-(4-(4-(2-(4-(4-((5-(2,4-difluoro-5-methylphenyl)imdazo [1,2-a]pyrazin-8-yl)amino)-1H-pyrazol-1-yl)piperidin-1-yl)ethyl)piperazin-1-yl)-2-fluorophenyl)piper idine-2,6-dione]	22%	0.9 nM	11%
Cc1cc(-c2cnc(Nc3cnn(C4CCN(CCN5CCN(c6ccc(C7CCC(=O)NC7=O)c(Cl)c6)CC5)CC4)c3)c3nccn23)c(F)cc1F (stereo not drawn) [Compound 54, 3-(2-chloro-4-(4-(2-(4-(4-((5-(2,4-difluoro-5-methylphenyl)imdazo [1,2-a]pyrazin-8-yl)amino)-1H-pyrazol-1-yl)piperidin-1-yl)ethyl)piperazin-1-yl)phenyl) piperidine-2,6-dione]	28%	10 nM	15%
